From PubChem BioAssay (NCI)
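96-well plates; 48 h exposure; 5 concentrations. Endpoints by linear interpolation between flanking doses. Not reached: highest tested concentration assigned. At the TGI there is no net growth.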

Assays:
Assay in all cases: NCI tumour cell line growth inhibition, 48 h
A498 renal = tested on: A498 renal
A549 NSCLC = tested on: A549 NSCLC
ACHN renal = tested on: ACHN renal
CAKI-1 renal = tested on: CAKI-1 renal
CCRF-CEM leukemia = tested on: CCRF-CEM leukemia
COLO 205 colon = tested on: COLO 205 colon
DLD-1 colon = tested on: DLD-1 colon
DMS 114 small cell lung = tested on: DMS 114 small cell lung
DMS 273 small cell lung = tested on: DMS 273 small cell lung
EKVX NSCLC = tested on: EKVX NSCLC
HCT-116 colon = tested on: HCT-116 colon
HCT-15 colon = tested on: HCT-15 colon
HL-60(TB) leukemia = tested on: HL-60(TB) leukemia
HOP-18 NSCLC = tested on: HOP-18 NSCLC
HOP-92 NSCLC = tested on: HOP-92 NSCLC
HT29 colon = tested on: HT29 colon
IGROV1 ovarian = tested on: IGROV1 ovarian
K-562 leukemia = tested on: K-562 leukemia
KM12 colon = tested on: KM12 colon
KM20L2 colon = tested on: KM20L2 colon
LOX IMVI melanoma = tested on: LOX IMVI melanoma
LXFL 529 NSCLC = tested on: LXFL 529 NSCLC
M14 melanoma = tested on: M14 melanoma
M19-MEL melanoma = tested on: M19-MEL melanoma
MOLT-4 leukemia = tested on: MOLT-4 leukemia
NCI-H226 lung = tested on: NCI-H226 lung
NCI-H23 lung = tested on: NCI-H23 lung
NCI-H460 lung = tested on: NCI-H460 lung
NCI-H522 lung = tested on: NCI-H522 lung
OVCAR-3 ovarian = tested on: OVCAR-3 ovarian
OVCAR-4 ovarian = tested on: OVCAR-4 ovarian
OVCAR-5 ovarian = tested on: OVCAR-5 ovarian
OVCAR-8 ovarian = tested on: OVCAR-8 ovarian
RPMI-8226 leukemia = tested on: RPMI-8226 leukemia
RXF 393 renal = tested on: RXF 393 renal
SF-268 CNS = tested on: SF-268 CNS
SF-295 CNS = tested on: SF-295 CNS
SF-539 CNS = tested on: SF-539 CNS
SK-MEL-28 melanoma = tested on: SK-MEL-28 melanoma
SK-MEL-5 melanoma = tested on: SK-MEL-5 melanoma
SK-OV-3 ovarian = tested on: SK-OV-3 ovarian
SN12C renal = tested on: SN12C renal
SNB-19 CNS = tested on: SNB-19 CNS
SNB-75 CNS = tested on: SNB-75 CNS
SNB-78 CNS = tested on: SNB-78 CNS
SW-620 colon = tested on: SW-620 colon
TK-10 renal = tested on: TK-10 renal
U251 CNS = tested on: U251 CNS
UACC-257 melanoma = tested on: UACC-257 melanoma
UACC-62 melanoma = tested on: UACC-62 melanoma
UO-31 renal = tested on: UO-31 renal
XF 498 CNS = tested on: XF 498 CNS
786-0 renal = tested on: 786-0 renal
HOP-62 NSCLC = tested on: HOP-62 NSCLC
MALME-3M melanoma = tested on: MALME-3M melanoma
SK-MEL-2 melanoma = tested on: SK-MEL-2 melanoma
HCC-2998 colon = tested on: HCC-2998 colon
SR leukemia = tested on: SR leukemia

Measured: TGI

COC(=O)C1CCC(=O)C(Sc2ccccc2)C1 (stereo not drawn)
99 µM: UO-31 renal
96.4 µM: SNB-75 CNS
80 µM: CCRF-CEM leukemia
not listed: 786-0 renal | HOP-62 NSCLC | MALME-3M melanoma | SK-MEL-2 melanoma | HCC-2998 colon | SR leukemia
> 100 µM: all other assays above

CN(C(=O)c1cccs1)C(=S)N1CCN(c2ccccn2)CC1
not listed: A498 renal | EKVX NSCLC | HCC-2998 colon | SR leukemia
> 100 µM: all other assays above

Cc1nc2nnnn2c2c1C(=O)Nc1ccccc1N2
not listed: A498 renal | CAKI-1 renal | HCT-15 colon | OVCAR-4 ovarian | OVCAR-5 ovarian | SK-MEL-5 melanoma
> 100 µM: all other assays above
